Assay results reported in ChEMBL document CHEMBL5518215, “Unlocking Antibacterial Potential: Key-Site-Based Regulation of Antibacterial Spectrum of Peptides” (J Med Chem, 2024).

Experiments:
[1] = Antimicrobial activity against Salmonella pullorum C7913 assessed as bacterial killing measured after 16 hrs incubation; format: functional, Salmonella enterica subsp. enterica serovar Pullorum; settings: Salmonella enterica
Salmonella typhimurium [2] = experiment: Antimicrobial activity against Salmonella typhimurium C7731 assessed as bacterial killing measured after 16 hrs incubation; format: functional, Salmonella enterica subsp. enterica serovar Typhimurium; settings: Salmonella enterica
Pseudomonas aeruginosa [3] = experiment: Antimicrobial activity against Pseudomonas aeruginosa 27853 assessed as absence bacterial growth measured after 18 to 24 hrs incubation by NCCLS method; format: functional; settings: time 18-24 hrs
Enterococcus faecalis [4] = experiment: Antimicrobial activity against Enterococcus faecalis 29212 assessed as bacterial killing measured after 16 hrs incubation; format: functional
Bacillus cereus [5] = experiment: Antimicrobial activity against Bacillus cereus 1.932 assessed as absence bacterial growth measured after 18 to 24 hrs incubation by NCCLS method; format: functional; settings: time 18-24 hrs
Acinetobacter baumannii [6] = experiment: Antimicrobial activity against Acinetobacter baumannii 1.6769 assessed as absence bacterial growth measured after 18 to 24 hrs incubation by NCCLS method; format: functional; settings: time 18-24 hrs
Bacillus cereus [7] = experiment: Antimicrobial activity against Bacillus cereus 1.932 assessed as bacterial killing measured after 16 hrs incubation; format: functional
Enterococcus faecalis [8] = experiment: Antimicrobial activity against Enterococcus faecalis 29212 assessed as absence bacterial growth measured after 18 to 24 hrs incubation by NCCLS method; format: functional; settings: time 18-24 hrs
[9] = Antimicrobial activity against Salmonella pullorum C7913 assessed as absence bacterial growth measured after 18 to 24 hrs incubation by NCCLS method; format: functional, Salmonella enterica subsp. enterica serovar Pullorum; settings: Salmonella enterica, time 18-24 hrs
Salmonella typhimurium [10] = experiment: Antimicrobial activity against Salmonella typhimurium 14028 assessed as absence bacterial growth measured after 18 to 24 hrs incubation by NCCLS method; format: functional, Salmonella enterica subsp. enterica serovar Typhimurium; settings: Salmonella enterica, time 18-24 hrs
Salmonella typhimurium [11] = experiment: Antimicrobial activity against Salmonella typhimurium 14028 assessed as bacterial killing measured after 16 hrs incubation; format: functional, Salmonella enterica subsp. enterica serovar Typhimurium; settings: Salmonella enterica
Acinetobacter baumannii [12] = experiment: Antimicrobial activity against Acinetobacter baumannii 1.6769 assessed as bacterial killing measured after 16 hrs incubation; format: functional
Staphylococcus aureus [13] = experiment: Antimicrobial activity against Methicillin-resistant Staphylococcus aureus 43300 assessed as absence bacterial growth measured after 18 to 24 hrs incubation by NCCLS method; format: functional; settings: time 18-24 hrs
Pseudomonas aeruginosa [14] = experiment: Antimicrobial activity against Pseudomonas aeruginosa 27853 assessed as bacterial killing measured after 16 hrs incubation; format: functional
Salmonella typhimurium [15] = experiment: Antimicrobial activity against Salmonella typhimurium C7731 assessed as absence bacterial growth measured after 18 to 24 hrs incubation by NCCLS method; format: functional, Salmonella enterica subsp. enterica serovar Typhimurium; settings: Salmonella enterica, time 18-24 hrs
Listeria monocytogenes [16] = experiment: Antimicrobial activity against Listeria monocytogenes 1.10753 assessed as absence bacterial growth measured after 18 to 24 hrs incubation by NCCLS method; format: functional; settings: time 18-24 hrs
Staphylococcus aureus [17] = experiment: Antimicrobial activity against Methicillin-resistant Staphylococcus aureus 43300 assessed as bacterial killing measured after 16 hrs incubation; format: functional
Escherichia coli [18] = experiment: Antimicrobial activity against Escherichia coli 25922 assessed as bacterial killing measured after 16 hrs incubation; format: functional
Escherichia coli [19] = experiment: Antimicrobial activity against Escherichia coli 25922 assessed as absence bacterial growth measured after 18 to 24 hrs incubation by NCCLS method; format: functional; settings: time 18-24 hrs
Staphylococcus aureus [20] = experiment: Antimicrobial activity against Staphylococcus aureus 29213 assessed as absence bacterial growth measured after 18 to 24 hrs incubation by NCCLS method; format: functional; settings: time 18-24 hrs
Staphylococcus aureus [21] = experiment: Antimicrobial activity against Staphylococcus aureus 25923 assessed as bacterial killing measured after 16 hrs incubation; format: functional
Escherichia coli [22] = experiment: Antimicrobial activity against Escherichia coli K88 assessed as bacterial killing measured after 16 hrs incubation; format: functional
[23] = system: Staphylococcus epidermidis; experiment: Antimicrobial activity against Staphylococcus epidermidis 12228 assessed as absence bacterial growth measured after 18 to 24 hrs incubation by NCCLS method; format: functional; settings: time 18-24 hrs
[24] = system: Staphylococcus epidermidis; experiment: Antimicrobial activity against Staphylococcus epidermidis 12228 assessed as bacterial killing measured after 16 hrs incubation; format: functional
Listeria monocytogenes [25] = experiment: Antimicrobial activity against Listeria monocytogenes 1.10753 assessed as bacterial killing measured after 16 hrs incubation; format: functional
Escherichia coli [26] = experiment: Antimicrobial activity against Escherichia coli K88 assessed as absence bacterial growth measured after 18 to 24 hrs incubation by NCCLS method; format: functional; settings: time 18-24 hrs
Staphylococcus aureus [27] = experiment: Antimicrobial activity against Staphylococcus aureus 29213 assessed as absence bacterial growth measured after 18 to 24 hrs incubation by NCCLS m; format: functional; settings: time 18-24 hrs
Staphylococcus aureus [28] = experiment: Antimicrobial activity against Staphylococcus aureus 29213 assessed as bacterial killing measured after 16 hrs incubation; format: functional
Escherichia coli [29] = experiment: Antimicrobial activity against Escherichia coli 25922 assessed as absence bacterial growth measured after 18 to 24 hrs incubation in presence of 50% serum by NCCLS method; format: functional; settings: time 18-24 hrs
Escherichia coli [30] = experiment: Antimicrobial activity against Escherichia coli 25922 assessed as absence bacterial growth measured after 18 to 24 hrs incubation in presence of NH4Cl by NCCLS method; format: functional; settings: time 18-24 hrs
[31] = Cytotoxicity against mouse RAW264.7 cells assessed as cell survival rate measured after 8 hrs by MTT assay; format: toxicity, cell-based
Escherichia coli [32] = experiment: Antimicrobial activity against Escherichia coli 25922 assessed as absence bacterial growth measured after 18 to 24 hrs incubation in presence of KCl by NCCLS method; format: functional; settings: time 18-24 hrs
Escherichia coli [33] = experiment: Antimicrobial activity against Escherichia coli 25922 assessed as absence bacterial growth measured after 18 to 24 hrs incubation in presence of ZnCl2 by NCCLS method; format: functional; settings: time 18-24 hrs
Escherichia coli [34] = experiment: Antimicrobial activity against Escherichia coli 25922 assessed as absence bacterial growth measured after 18 to 24 hrs incubation in presence of 12.5% serum by NCCLS method; format: functional; settings: time 18-24 hrs
Escherichia coli [35] = experiment: Antimicrobial activity against Escherichia coli 25922 assessed as absence bacterial growth measured after 18 to 24 hrs incubation in presence of 25% serum by NCCLS method; format: functional; settings: time 18-24 hrs
Escherichia coli [36] = experiment: Antimicrobial activity against Escherichia coli 25922 assessed as absence bacterial growth measured after 18 to 24 hrs incubation in presence of MgCl2 by NCCLS method; format: functional; settings: time 18-24 hrs
Escherichia coli [37] = experiment: Antimicrobial activity against Escherichia coli 25922 assessed as absence bacterial growth measured after 18 to 24 hrs incubation in presence of NaCl by NCCLS method; format: functional; settings: time 18-24 hrs
Escherichia coli [38] = experiment: Antimicrobial activity against Escherichia coli 25922 assessed as absence bacterial growth measured after 18 to 24 hrs incubation in presence of FeCl3 by NCCLS method; format: functional; settings: time 18-24 hrs
[39] = Cytotoxicity against human HEK-293T cells assessed as cell survival rate measured after 8 hrs by MTT assay; format: toxicity, cell-based
Erythrocyte = experiment: Hemolytic activity in human RBC at effective concentration measured after 1 hr by microplate reader analysis; format: toxicity, cell-based
[40] = Cytotoxicity against porcine IPEC-J2 cells assessed as cell survival rate measured after 8 hrs by MTT assay; format: toxicity, cell-based, Sus scrofa; settings: pig

## H-AKLWLKAAKLWLKAAKLWLKA-NH2
[1]
  MBC: 8 µM
Salmonella typhimurium [2]
  MBC: 0.5 µM
Pseudomonas aeruginosa [3]
  MIC: 2 µM
Enterococcus faecalis [4]
  MBC: 4 µM
Bacillus cereus [5]
  MIC: 2 µM
Acinetobacter baumannii [6]
  MIC: 1 µM
Bacillus cereus [7]
  MBC: 2 µM
Enterococcus faecalis [8]
  MIC: 4 µM
[9]
  MIC: 2 µM
Salmonella typhimurium [10]
  MIC: 1 µM
Salmonella typhimurium [11]
  MBC: 2 µM
Acinetobacter baumannii [12]
  MBC: 1 µM
Staphylococcus aureus [13]
  MIC: 2 µM
Pseudomonas aeruginosa [14]
  MBC: 4 µM
Salmonella typhimurium [15]
  MIC: 0.5 µM
Listeria monocytogenes [16]
  MIC: 16 µM
Staphylococcus aureus [17]
  MBC: 4 µM
Escherichia coli [18]
  MBC: 1 µM
Escherichia coli [19]
  MIC: 1 µM
Staphylococcus aureus [20]
  MIC: 2 µM
Staphylococcus aureus [21]
  MBC: 4 µM
Escherichia coli [22]
  MBC: 0.5 µM
[23]
  MIC: 2 µM
[24]
  MBC: 4 µM
Listeria monocytogenes [25]
  MBC: 32 µM
Escherichia coli [26]
  MIC: 0.5 µM
Staphylococcus aureus [27]
  MIC: 2 µM
Staphylococcus aureus [28]
  MBC: 2 µM

## H-GKLWLKGCKLWLKGGKLWLKG-NH2
[1]
  MBC: 4 µM
Salmonella typhimurium [2]
  MBC: 32 µM
Pseudomonas aeruginosa [3]
  MIC: 32 µM
Enterococcus faecalis [4]
  MBC: > 32 µM
Bacillus cereus [5]
  MIC: 4 µM
Escherichia coli [29]
  MIC: > 32 µM
Acinetobacter baumannii [6]
  MIC: 8 µM
Escherichia coli [30]
  MIC: 8 µM
Bacillus cereus [7]
  MBC: 4 µM
Enterococcus faecalis [8]
  MIC: > 32 µM
[9]
  MIC: 2 µM
Salmonella typhimurium [10]
  MIC: 8 µM
[31]
  IC50 at 8 h: > 64 µM
Salmonella typhimurium [11]
  MBC: 16 µM
Acinetobacter baumannii [12]
  MBC: 16 µM
Staphylococcus aureus [13]
  MIC: 32 µM
Pseudomonas aeruginosa [14]
  MBC: 32 µM
Salmonella typhimurium [15]
  MIC: 8 µM
Listeria monocytogenes [16]
  MIC: > 32 µM
Escherichia coli [32]
  MIC: 8 µM
Escherichia coli [33]
  MIC: 8 µM
Staphylococcus aureus [17]
  MBC: 32 µM
Escherichia coli [18]
  MBC: 8 µM
Escherichia coli [19]
  MIC: 8 µM
Escherichia coli [34]
  MIC: > 32 µM
Escherichia coli [35]
  MIC: > 32 µM
Escherichia coli [36]
  MIC: > 32 µM
Staphylococcus aureus [20]
  MIC: > 32 µM
Staphylococcus aureus [21]
  MBC: > 32 µM
Escherichia coli [22]
  MBC: 2 µM
[23]
  MIC: > 32 µM
[24]
  MBC: > 32 µM
Listeria monocytogenes [25]
  MBC: > 32 µM
Escherichia coli [37]
  MIC: > 32 µM
Escherichia coli [26]
  MIC: 2 µM
Staphylococcus aureus [27]
  MIC: > 32 µM
Escherichia coli [38]
  MIC: 8 µM
Staphylococcus aureus [28]
  MBC: > 32 µM
[39]
  IC50 at 8 h: > 64 µM
Erythrocyte
  HC10: > 128 µM
[40]
  IC50 at 8 h: > 64 µM

## H-GKLWLKGFKLWLKGGKLWLKG-NH2
[1]
  MBC: 2 µM
Salmonella typhimurium [2]
  MBC: 32 µM
Pseudomonas aeruginosa [3]
  MIC: 4 µM
Enterococcus faecalis [4]
  MBC: 4 µM
Bacillus cereus [5]
  MIC: 2 µM
Escherichia coli [29]
  MIC: > 32 µM
Acinetobacter baumannii [6]
  MIC: 2 µM
Escherichia coli [30]
  MIC: 2 µM
Bacillus cereus [7]
  MBC: 2 µM
Enterococcus faecalis [8]
  MIC: 2 µM
[9]
  MIC: 0.5 µM
Salmonella typhimurium [10]
  MIC: 2 µM
[31]
  IC50 at 8 h: 31 µM
Salmonella typhimurium [11]
  MBC: 8 µM
Acinetobacter baumannii [12]
  MBC: 2 µM
Staphylococcus aureus [13]
  MIC: 2 µM
Pseudomonas aeruginosa [14]
  MBC: 16 µM
Salmonella typhimurium [15]
  MIC: 8 µM
Listeria monocytogenes [16]
  MIC: > 32 µM
Escherichia coli [32]
  MIC: 4 µM
Escherichia coli [33]
  MIC: 2 µM
Staphylococcus aureus [17]
  MBC: 8 µM
Escherichia coli [18]
  MBC: 2 µM
Escherichia coli [19]
  MIC: 2 µM
Escherichia coli [34]
  MIC: 16 µM
Escherichia coli [35]
  MIC: > 32 µM
Escherichia coli [36]
  MIC: 4 µM
Staphylococcus aureus [20]
  MIC: 4 µM
Staphylococcus aureus [21]
  MBC: 4 µM
Escherichia coli [22]
  MBC: 1 µM
[23]
  MIC: 4 µM
[24]
  MBC: 4 µM
Listeria monocytogenes [25]
  MBC: > 32 µM
Escherichia coli [37]
  MIC: 4 µM
Escherichia coli [26]
  MIC: 1 µM
Staphylococcus aureus [27]
  MIC: 4 µM
Escherichia coli [38]
  MIC: 2 µM
Staphylococcus aureus [28]
  MBC: 4 µM
[39]
  IC50 at 8 h: 36.6 µM
Erythrocyte
  HC10: 128 µM
[40]
  IC50 at 8 h: 35.7 µM
